Data: patent publication US20230202981A1, “NOVEL SMALL MOLECULES FOR TARGETED DEGRADATION OF UNTARGETABLE KRAS IN CANCER THERAPY” (Pillai Universal LLC, priority 2020, published 2023)

Experiments:
[1] = tested on: BT-474; assay: IC50 of Compound 1 on breast cells (MTT assay); format: cell-based; conditions: Homo sapiens; BT-474 cells
Text: (§1) The activity of Compound 1 on various mutated EGFRs, HER2, and HER4 were examined. MTT assays, flow cytometry, and Western blotting were used to examine the effects of Compound 1 on with different genetic characteristics and relevant molecular mechanisms. Nude mouse xenograft models with cells were used to evaluate the in vim anti-tumor activity of Compound 1. […] Compound 1 blocked EGFR phosphorylation, thereby down regulating downstream PI3/AKT and MAPK/ERK signaling pathways and inducing G0/G1 arrest in different cells. […] Due to compromised homologous recombination (HR) repair, BRCA 1-and BRCA 2-mutated tumours accumulate DNA damage and genomic rearrangements conducive of tumour progression.

[2] = tested on: BT-549; assay: IC50 of Compound 1 on breast cells (MTT assay); format: cell-based; conditions: Homo sapiens; BT-549 cells
Text: as §1

[3] = tested on: HCC1937; assay: IC50 of Compound 1 on breast cells (MTT assay); format: cell-based; conditions: Homo sapiens
Text: as §1

[4] = tested on: MCF-10A; assay: IC50 of Compound 1 on breast cells (MTT assay); format: cell-based; conditions: Homo sapiens; MCF-10A cells
Text: as §1

[5] = tested on: MCF-7; assay: IC50 of Compound 1 on breast cells (MTT assay); format: cell-based; conditions: Homo sapiens, MCF7; MCF-7 cells
Text: as §1

[6] = tested on: MDA-MB-231; assay: IC50 of Compound 1 on breast cells (MTT assay); format: cell-based; conditions: Homo sapiens; MDA-MB-231 cells
Text: as §1

[7] = tested on: MDA-MB-453; assay: IC50 of Compound 1 on breast cells (MTT assay); format: cell-based; conditions: Homo sapiens; MDA-MB-453 cells
Text: as §1

[8] = tested on: MDA-MB-468; assay: IC50 of Compound 1 on breast cells (MTT assay); format: cell-based; conditions: Homo sapiens; MDA-MB-468 cells
Text: as §1

[9] = tested on: T-47D; assay: IC50 of Compound 1 on breast cells (MTT assay); format: cell-based; conditions: Homo sapiens, T47D; T-47D cells
Text: as §1

[10] = tested on: ZR-75-1; assay: IC50 of Compound 1 on breast cells (MTT assay); format: cell-based; conditions: Homo sapiens; ZR-75-1 cells
Text: as §1

[11] = tested on: RAS; assay: Effect on RAS degradation (GSK3β, Wnt/β-catenin pathway proteins); format: cell-based
[12] = tested on: KRAS-driven lung tumor; assay: Tumor growth in xenograft model; format: in vivo
Experimental: The in vivo efficacy of Compound 1 in the context of mutant KRAS was next assessed. Cells were injected into nude mice, and the tumors were allowed to grow to about 60 mm^3 in size and treated daily with Compound 1 for 14-21 days. […] At the day of harvest, the net tumor mass was determined and the average tumor weight of the Compound 1 treatment group was 89% less than the average tumor weight of the control group. […] The effect of Compound 1 treatment were further examined on KRAS-mediated RAF, MEK/ERK, and PI3K/AKT cascades in protein extracts derived from vehicle- and Compound 1-treated tumors.

[13] = tested on: mutant-KRAS-driven cancer; assay: In vivo tumor model (PDTX animal model); design: species or system mice
Text: FIG. 18 depicts regression of all mutant-KRAS-driven cancer in PDTX Animal Model.
Compound 1 was also found to inhibit downstream signaling.

[14] = In vivo toxicity studies
Text: FIG. 20 depicts the results of in vivo toxicity studies of Compound 1. Organ weight, Body weight, liver weight, haematological parameters, serum electrolyte LFT, KFT, Lipid parameters found to be normal range compared with the controlled group.
Tests of blood cells (WBC, RBC, and PLT) for bone marrow, RFT for kidney, and ALT/AST for liver functions all provided results in the normal range.

[15] = tested on: cancer cells expressing KRAS mutations; assay: Cell viability assay in cancer cells expressing KRAS mutations; format: cell-based
Text: It was further examined that if Compound 1 can also induce cytotoxic effects on other cancer cells expressing KRAS mutations, a panel of cancer cell lines which harbor KRAS G12D, G12V and G12C point mutations respectively, were selected and used with KRAS wild-type (WT) controls.
The cytotoxicity of Compound 1 was initially evaluated in a panel of 30+ cell lines with wild-type (WT) KRAS or known KRAS mutations.

[16] = tested on: normal cell lines; assay: Toxicity in normal cell lines; format: cell-based
[17] = tested on: wild-type (WT) KRAS; assay: RAS activation assay, GTP-KRAS in wild-type cells; format: cell-based
Text: Actually, mutant KRAS would interfere the balance between GEFs and GAPs, resulting in locking in the active GTP-bound KRAS state and aberrant stimulation of its downstream signaling.
Significant increased expression of Immune cells has been observed in Compound 1 treatment.

[18] = tested on: RAS-MAPK pathway signaling in KRAS G12C mutant cell lines; assay: Reactivation of RAS signaling in KRAS G12C mutant cell lines; format: cell-based
Text: Densitometry of phosphor-ERK, MEK, AKT, and MYC is normalized to GAPDH. Results represent an average across 8 cell lines.

[19] = tested on: KRAS G12C mutant cell lines; assay: Cytotoxic effect on NCI-Panel of 10 KRAS G12C mutant cell lines; format: cell-based
[20] = tested on: drug-sensitive EGFR mutations, and EGFR C797S mutations; assay: Enzyme activity of EGFR family members; format: biochemical
Text: as §1

[21] = biological target: wild-type (WT) HER2 (Homo sapiens, UniProt P04626); assay: Enzyme activity of EGFR family members; format: biochemical
Text: as §1

[22] = tested on: mitosis; assay: Cell cycle analysis of DNA content and phospho-histone H3B immunofluorescence; format: cell-based
Text: The present invention is aimed to invent powerful, therapeutic small molecules that could target mutant KRAS on its active sites. Here we identified a small molecule, compound I, that binds the GTP/GDP-binding pocket of KRAS. For this purpose we studied a strong correlation of measurement among a larger panel of tumor cell lines expressing KRAS mutation and analyses the potency to inhibit the tumor cell growth activated RAS. […] Therefore, compound I may be considered as a potential KRAS inhibitor for treatment of cancer cells carrying KRAS oncogene.

Chain of wild-type (WT) HER2 (P04626 23-1255): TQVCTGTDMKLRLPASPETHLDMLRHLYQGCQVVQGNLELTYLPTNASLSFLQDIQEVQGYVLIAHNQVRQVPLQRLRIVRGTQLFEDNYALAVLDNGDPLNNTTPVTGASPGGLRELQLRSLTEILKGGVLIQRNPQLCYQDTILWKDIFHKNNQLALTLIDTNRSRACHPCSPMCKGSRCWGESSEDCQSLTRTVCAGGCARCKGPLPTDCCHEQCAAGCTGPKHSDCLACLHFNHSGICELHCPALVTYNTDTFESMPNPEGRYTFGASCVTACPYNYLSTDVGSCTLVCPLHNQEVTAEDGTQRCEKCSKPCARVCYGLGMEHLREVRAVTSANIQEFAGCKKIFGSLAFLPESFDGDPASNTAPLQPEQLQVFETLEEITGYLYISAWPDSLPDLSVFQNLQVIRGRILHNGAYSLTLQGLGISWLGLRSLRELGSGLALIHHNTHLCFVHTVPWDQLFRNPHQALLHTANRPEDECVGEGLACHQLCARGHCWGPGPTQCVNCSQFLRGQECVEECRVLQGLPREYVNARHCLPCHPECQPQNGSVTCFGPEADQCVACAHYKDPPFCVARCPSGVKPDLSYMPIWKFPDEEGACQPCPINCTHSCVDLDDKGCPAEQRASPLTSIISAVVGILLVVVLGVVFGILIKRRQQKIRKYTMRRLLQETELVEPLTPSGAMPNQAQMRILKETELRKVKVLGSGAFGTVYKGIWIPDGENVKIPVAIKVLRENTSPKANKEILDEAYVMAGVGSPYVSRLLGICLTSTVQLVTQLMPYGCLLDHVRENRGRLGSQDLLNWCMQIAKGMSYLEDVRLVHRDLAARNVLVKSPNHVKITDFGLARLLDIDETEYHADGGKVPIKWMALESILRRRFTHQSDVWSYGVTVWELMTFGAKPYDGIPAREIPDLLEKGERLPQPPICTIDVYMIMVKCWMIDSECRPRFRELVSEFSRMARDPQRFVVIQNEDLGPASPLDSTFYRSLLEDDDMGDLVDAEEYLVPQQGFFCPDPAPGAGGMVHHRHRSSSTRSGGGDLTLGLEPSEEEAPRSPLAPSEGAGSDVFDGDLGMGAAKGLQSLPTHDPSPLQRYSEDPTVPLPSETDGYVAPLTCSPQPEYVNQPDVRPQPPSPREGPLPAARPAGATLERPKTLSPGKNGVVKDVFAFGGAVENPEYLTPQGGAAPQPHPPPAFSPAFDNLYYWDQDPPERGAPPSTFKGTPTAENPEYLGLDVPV

CCCCc1ncc(C(=O)C2CC=C(C(N)=O)N2)cc1C(=O)OCC (centres unmarked) [Compound 1]
IC50 [1]: 4.45 ± 0.1 µM | IC50 [2]: 3.24 ± 0.08 µM | IC50 [3]: 7.52 ± 1.26 µM | IC50 [4]: 106 ± 3.14 µM | IC50 [5]: 2.98 ± 0.6 µM | IC50 [6]: 4.89 ± 0.37 µM | IC50 [7]: 3.65 ± 0.44 µM | IC50 [8]: 4.21 ± 0.3 µM | IC50 [9]: 5.19 ± 0.28 µM | IC50 [10]: 1.69 ± 0.14 µM | Axin level ([11]; control 0.25 ± 0.05): 1.96 ± 0.02 | APC level ([11]; control 0.63 ± 0.03): 0.96 ± 0.44 | GSk3β level ([11]; control 0.69 ± 0.02): 1.89 ± 0.23 | Beta Catenin level ([11]; control 1.32 ± 0.09): 0.66 ± 0.09 | RAS level ([11]; control 1.96 ± 0.06): 0.25 ± 0.03 | RAS degradation ([11]; via GSK3β phosphorylation): degrades the RAS | apoptotic cells by cleaved caspase-3 staining in tumors ([12]; immunohistochemistry): prominent increase of apoptotic cells | cell proliferation by Ki-67 staining in tumors ([12]; immunohistochemistry): large reduction in cell proliferation | body weight loss or apparent toxicity ([12]; nude mice (n=6) after treatment): no significant body weight loss or apparent toxicity | tumor growth suppression compared to vehicle treated controls ([12]; nude mice xenograft, suppression starting at day 9): significant suppression from day 10 to day 14 | average tumor weight less than the control group ([12]; nude mice, treated daily for 14-21 days, day of harvest): 89% | CRAF, ERK, and AKT phosphorylation in tumor protein extracts ([12]; treated vs vehicle tumors): significant suppression | tumor growth suppression ([13]; all mutant-KRAS-expressing animal models, started at day 9): significant suppression from day 10-14 | relapse ([13]; for 6-8 months): no evidence of relapse | reduction in tumor growth ([13]; within 28 days): 95% | histopathology of harvested normal tissues ([14]; after treatment with specific doses): no evidence of normal tissue toxicities | blood cells, kidney and liver function tests, organ and body weight ([14]; compared with the controlled group): normal range | IC50 values, cancer cells and stem cells viability ([15]; KRAS G12D, G12V and G12C cell lines, 24 h): nanomolar concentration | IC50 values, cancer cell viability ([15]; panel of 30+ cell lines with WT KRAS or known KRAS mutations): micromolar to nanomolar concentrations | toxicity in normal cell lines [16]: minimum toxicity | GTP binding affinity in wild type KRAS ([17]; wild type KRAS): no effect on GTP binding affinity | effect on GTP-KRAS in cells with wild-type KRAS ([17]; wild-type (WT) KRAS cells): no effect was observed | MAPK pathway signaling (phosphor-MEK, phosphor-ERK, phosphor-AKT) ([18]; at 4 hours): suppressed MAPK pathway signaling | rebound of RAS-MAPK pathway signaling (pMEK, pERK, pAKT, MYC) ([18]; by 72 hours): no rebound activity was observed | number of cancer cells compared against AMG510 and MRTX849 [19]: significant reduction in the number of cancer cells | enzyme activity of mutated EGFR [20]: effectively inhibited the enzyme activity | enzyme activity of HER2 [21]: effectively inhibited the enzyme activity | mitotic arrest [22]: induced mitotic arrest
